Our source for the IC50, EC50 and inhibition values is patent publication US9873693B2 (Sunesis Pharmaceuticals, Inc., priority 2006, dated 2018).

SMILES strings stand for the structures. Where two headings read alike, the source gives them in different places.

For one assay, the target named is phosphorylated PDK1 (Homo sapiens (Human), UniProt O15530). As to the kind of experiment: PDK1 kinase assay (coupled PDK1/AKT/FAM-crosstide, IMAP). Conditions: 0.5 nM phosphorylated PDK1, 24 μM ATP; read-out: Inhibition of phospo-PDK1 in vitro IC50. In kind it is biochemical.
For the next assay, the target named is dephosphorylated PDK1 (Homo sapiens (Human), UniProt O15530). The assay is described as above. In kind it is biochemical. Conditions: 25 nM un-phosphorylated PDK1, 24 μM ATP; read-out: Inhibition of dephospo-PDK1 in vitro IC50. On the procedure:
A PDK1 kinase assay was performed as follows. PDK1 (amino acids 51-360) and AKT2 (amino acids 140-467 fused to PIFtide, amino acids […]) were expressed as N-terminally tagged GST fusion proteins in insect cells and purified to greater than 90% homogeneity. PDK1 protein was divided into two fractions, one of which was subsequently dephosphorylated. To generate dephosphorylated PDK1, the PDK1 was reacted with GST-tagged lambda-phosphatase in vitro. GST was subsequently cleaved proteolytically for both phosphorylated and dephosphorylated PDK1. Protein preparations were run on glutathione Sepharose columns to remove GST and GST-tagged lambda-phosphatase, if present. Phosphorylated PDK1 and dephosphorylated PDK1 were verified by mass-spectrometry. Enzyme activity was determined in a coupled PDK1/AKT/FAM-crosstide assay using either phosphorylated or unphosphorylated PDK1 and phosphorylation of FAM-crosstide was determined by standard IMAP protocol (Molecular Devices). For inhibition studies, compounds were titrated 3-fold in DMSO and diluted 40-fold into assay buffer (10 mM Tris HCl pH7.2; 10 mM MgCl2; 0.01% Triton X-100; 1 mM DTT) containing PDK1, AKT2, and FAM-crosstide. (final concentrations: 25 nM un-phosphorylated PDK1 or 0.5 nM phosphorylated PDK1, 30 nM unphosphorylated AKT2, and 100 nM crosstide substrate). The kinase reaction was initiated by adding ATP to a final concentration of 24 μM for both forms of PDK1 and incubated at 25° C. for 30 min. To detect assay product, the kinase reaction was combined with Progressive Binding Solution (1:600 Progressive Binding Reagent, 50% Buffer A, 50% Buffer B, Molecular Devices) in a 1:3 ratio. The mixture was incubated for 2 hours at 25° C. and the plate was scanned on an Analyst AD with excitation at 485 nm and emission at 530 nm. The fluorescence polarization value “P” is defined by the equation below. The value “mP” is generated by multiplying the P value for each reaction well by a factor of 1000. The value “ΔmP” for each well is the mP value for that well minus the mP value for the average negative control. P=(Fpar−Fperp)/(Fpar+Fperp) Eq.:
Where “par” is fluorescence intensity parallel to the excitation plane; and “perp” is fluorescence intensity perpendicular to the excitation plane. ΔmP values were plotted as a function of compound concentration and the data were analyzed with a 4-parameter fit using GraphPad Prism software.

Another assay deals with phospho-akt (Thr308). Kind of assay: phospho-akt (Thr308) MSD ELISA in PC-3 cells. In kind it is cell-based. Conditions: Homo sapiens, PC-3 cells; for EC50: PC-3, 2 h, 2 hours, no serum; for inhibition at 1 µM / inhibition at 10 µM: read-out: Percent Inhibition of phospho-Akt (308) By MSD ELISA. In outline: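 PC-3 cells plated overnight in 10% FBS medium, then treated with three-fold serial compound dilutions in serum-free medium; DMSO-only wells as high control. Lysates captured on BSA-blocked MSD plates overnight at 4 degrees, detection antibody 1 hr RT, electrochemiluminescence read on MSD reader.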
A general note: An ELISA detects its analyte on a solid surface through an enzyme-linked reagent.

Setting [1] is: read-out: Inhibition of P308 Akt in cells using MSD EC50.
[2] abbreviates: read-out: Reduction of Cellular Levels of Akt p308 By MSD ELISA (EC50 μM).

Chain of dephosphorylated PDK1 (O15530 51-360): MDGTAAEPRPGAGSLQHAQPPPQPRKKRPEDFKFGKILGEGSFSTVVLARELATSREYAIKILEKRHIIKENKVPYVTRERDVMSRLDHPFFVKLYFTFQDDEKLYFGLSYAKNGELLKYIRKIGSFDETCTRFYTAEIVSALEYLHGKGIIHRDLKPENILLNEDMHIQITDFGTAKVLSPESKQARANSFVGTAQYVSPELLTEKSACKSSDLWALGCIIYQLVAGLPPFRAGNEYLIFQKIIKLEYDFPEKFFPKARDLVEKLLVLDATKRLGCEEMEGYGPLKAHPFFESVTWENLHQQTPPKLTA
Chain of phosphorylated PDK1 (O15530 51-360): as above

For `Nc1ncnc2[nH]nc(-c3cccc(CNC(=O)c4cccn(Cc5ccc(F)c(F)c5)c4=O)c3)c12` [Cpd 5], the IC50 on phosphorylated PDK1 and on dephosphorylated PDK1 was less than 500 nM each time.

Turning to `O=C(NCc1cccc(-c2c[nH]c3ncccc23)c1)c1cccc(Nc2ccccc2)n1` [Cpd 54], the IC50 on phosphorylated PDK1 and at dephosphorylated PDK1 was less than 500 nM each time.

As to `O=C(NCc1cccc(-c2c[nH]c3ncc(-c4ccco4)cc23)c1)c1cccn(Cc2ccc(F)c(F)c2)c1=O` [Cpd 57], the 50% inhibitory concentration (IC50) on phosphorylated PDK1 and on dephosphorylated PDK1 was less than 500 nM in each case.

Regarding `CC(=O)Nc1cc(NCCCCCNC(=O)c2cccn(Cc3cccc(Cl)c3)c2=O)ncn1` [Cpd 99], the IC50 on phosphorylated PDK1 is more than 10000 nM; at dephosphorylated PDK1 it was 500 to 10000 nM.

Take `O=C(NCCCCCNc1nc2ccccc2o1)c1cccn(Cc2cccc(Cl)c2)c1=O` [Cpd 100]: the IC50 at phosphorylated PDK1 was more than 10000 nM; at dephosphorylated PDK1, 500 to 10000 nM.

For the compound `COc1ccnc(NCCCCCNC(=O)c2cccn(Cc3cccc(Cl)c3)c2=O)n1` [Cpd 101], the IC50 at phosphorylated PDK1 and at dephosphorylated PDK1 was 500 to 10000 nM throughout.

With `COc1ccnc(NCC/C=C/CCNC(=O)c2cccn(Cc3cccc(Cl)c3)c2=O)n1` [Cpd 103, 1-(3,4-Difluoro-benzyl)-2-oxo-1,2-dihydro-pyridine-3-carboxylic acid 3-(4-amino-1H-pyrazolo[3,4-d]pyrimidin-3-yl)-benzylamides], the values for the IC50 on phosphorylated PDK1 and at dephosphorylated PDK1 were 500 to 10000 nM and less than 500 nM, respectively.

Take `COc1ccnc(NCCCCCNC(=O)c2cccn(Cc3ccc(Cl)c(Cl)c3)c2=O)n1` [Cpd 104]: the IC50 on phosphorylated PDK1 was 500 to 10000 nM; at dephosphorylated PDK1 it was less than 500 nM.

Consider `COc1ccnc(NCCCCCNC(=O)c2cccn(C(C)c3ccc(Cl)cc3)c2=O)n1` (centres unmarked) [Cpd 105], for which the results for the IC50 on phosphorylated PDK1 and on dephosphorylated PDK1 were 500 to 10000 nM and less than 500 nM, respectively.

Turning to `COc1ccnc(NCCC#CCCNC(=O)c2cc(Cl)cn(C(C)c3ccc(Cl)cc3)c2=O)n1` (centres unmarked) [Cpd 106], the IC50 at phosphorylated PDK1 and on dephosphorylated PDK1 was less than 500 nM in each case.

Turning to `COc1ccnc(NCCCCCNC(=O)c2cccn(Cc3ccc(F)c(F)c3)c2=O)n1` [Cpd 107], the IC50 on phosphorylated PDK1 was 500 to 10000 nM; at dephosphorylated PDK1, less than 500 nM.

For `O=C(NCCCCCc1c[nH]c2ncccc12)c1cccn(Cc2cccc(Cl)c2)c1=O` [Cpd 108], the IC50 at phosphorylated PDK1 and at dephosphorylated PDK1 was 500 to 10000 nM throughout.

As to `O=C1CC(c2cccc(CNC(=O)c3cccn(Cc4ccc(F)c(F)c4)c3=O)c2)CN1` (centres unmarked) [Cpd 111], the IC50 on phosphorylated PDK1 and on dephosphorylated PDK1 was 500 to 10000 nM each time.

As for `C[C@@H](NC(=O)c1cccn(Cc2ccc(F)c(F)c2)c1=O)c1nc(-c2c[nH]c3ncccc23)cs1` [Cpd 114], the IC50 at phosphorylated PDK1 and on dephosphorylated PDK1 was less than 500 nM each time.

For the compound `Cc1nc(CNC(=O)c2cccn(Cc3ccc(F)c(F)c3)c2=O)sc1-c1c[nH]c2ncccc12` [Cpd 115], the IC50 at phosphorylated PDK1 was 500 to 10000 nM; at dephosphorylated PDK1 it was less than 500 nM.

For the compound `O=C(NCc1nc(-c2c[nH]c3ncccc23)c[nH]1)c1cccn(Cc2ccc(F)c(F)c2)c1=O` [Cpd 116], the IC50 on phosphorylated PDK1 was 500 to 10000 nM; at dephosphorylated PDK1, less than 500 nM.

For `O=C(NCCSc1ccc2[nH]c(=O)[nH]c2c1)c1cccn(Cc2ccc(F)c(F)c2)c1=O` [Cpd 117], the IC50 on phosphorylated PDK1 and at dephosphorylated PDK1 was 500 to 10000 nM in each case.

For the compound `O=C(NCCSc1ccc2[nH]c(=O)[nH]c2c1)c1cccn(Cc2ccc(F)c(F)c2)c1=O` [Cpd 118], the IC50 on phosphorylated PDK1 was 500 to 10000 nM; on dephosphorylated PDK1, less than 500 nM.

Take `Cn1c(=O)[nH]c2cc(OCCNC(=O)c3cccn(Cc4ccc(F)c(F)c4)c3=O)ccc21` [Cpd 119, N-(3-(4-chloro-H-pyrrolo[2,3-b]pyridin-3-yl)benzyl)-1-(3,4-difluorobenzyl)-2-oxo-1,2-dihydropyridine-3-carboxamide]: the IC50 on phosphorylated PDK1 and on dephosphorylated PDK1 was less than 500 nM each time.

With `O=C(NCc1ncc(-c2c[nH]c3ncccc23)o1)c1cccn(Cc2ccc(F)c(F)c2)c1=O` [Cpd 120], the IC50 on phosphorylated PDK1 and at dephosphorylated PDK1 was less than 500 nM in each case.

In the case of `NC(=O)Nc1ccc(OCCNC(=O)c2cccn(Cc3ccc(F)c(F)c3)c2=O)cc1` [Cpd 122], the IC50 is 500 to 10000 nM at phosphorylated PDK1 and less than 500 nM on dephosphorylated PDK1.

Turning to `O=C(NCc1nnc(-c2c[nH]c3ncccc23)s1)c1cccn(Cc2ccc(F)c(F)c2)c1=O` [Cpd 124], the IC50 on phosphorylated PDK1 and at dephosphorylated PDK1 was less than 500 nM each time.

Consider `O=C(NCCOc1ccc2c(c1)[nH]c(=O)n2CCN1CCCC1)c1cccn(Cc2ccc(F)c(F)c2)c1=O` [Cpd 130], for which the IC50 on phosphorylated PDK1 and on dephosphorylated PDK1 was 500 to 10000 nM in each case.

For `O=C(NCc1cc(-c2c[nH]c3ncccc23)[nH]n1)c1cccn(Cc2ccc(F)c(F)c2)c1=O` [Cpd 142], the IC50 at phosphorylated PDK1 and on dephosphorylated PDK1 was less than 500 nM each time.

`O=C(NCCOc1cc2[nH]c(=O)[nH]c2cc1F)c1cccn(Cc2ccc(F)c(F)c2)c1=O` [Cpd 155]: the results for the IC50 at phosphorylated PDK1 and at dephosphorylated PDK1 were 500 to 10000 nM and less than 500 nM, respectively.

As to `Nc1ccc(-c2cccc(CNC(=O)c3cccn(Cc4ccc(F)c(F)c4)c3=O)c2)cn1` [Cpd 214], on dephosphorylated PDK1, the concentration for half-maximal inhibition (IC50) lay within 500 to 10000 nM.

Regarding `O=C(NCc1cccc(-c2cc[nH]c(=O)c2)c1)c1cccn(Cc2ccc(F)c(F)c2)c1=O` [Cpd 224], the IC50 at dephosphorylated PDK1 fell in the range of 500 to 10000 nM.

As for `CNC(=O)C[C@@H](NC(=O)c1cccn(Cc2ccc(F)c(F)c2)c1=O)c1ncc(-c2c[nH]c3ncccc23)o1` [Cpd 248], the IC50 at dephosphorylated PDK1 is less than 500 nM.

Regarding `COc1ccnc(NCCCCCNC(=O)c2cccn(Cc3cc(F)c(F)c(F)c3)c2=O)n1` [Cpd 267], the IC50 at dephosphorylated PDK1 was less than 500 nM.

Turning to `O=C(NCc1ccnc(-c2c[nH]c3ncccc23)c1)c1cccn(Cc2ccc(F)c(F)c2)c1=O` [Cpd 285], the IC50 on phosphorylated PDK1 was less than 500 nM. The EC50 in the assay on phospho-akt (Thr308) (setting [1]) and in the assay on phospho-akt (Thr308) (setting [2]) was 1 to 5 µM each time.

As to `O=C(Nc1cccn(Cc2ccc(F)c(F)c2)c1=O)c1cccc(-c2c[nH]c3ncccc23)c1` [Cpd 288], on dephosphorylated PDK1, the IC50 was less than 500 nM.

As for `O=C(NCc1noc(-c2c[nH]c3ncccc23)n1)c1cccn(Cc2ccc(Cl)c(Cl)c2)c1=O` [Cpd 312], at phosphorylated PDK1, the IC50 was less than 500 nM. In addition, in the assay with phospho-akt (Thr308) (setting [1]), the EC50 is 1 to 5 µM. In the assay with phospho-akt (Thr308), the inhibition at 1 µM fell in the range of 25 to 75% and the inhibition at 10 µM is more than 75%.

In the case of `C[C@@H](c1ccc(Cl)cc1)n1cc(Cl)cc(C(=O)NCc2noc(-c3c[nH]c4ncccc34)n2)c1=O` [Cpd 315], the IC50 on phosphorylated PDK1 is less than 500 nM. In addition, the EC50 with phospho-akt (Thr308) (setting [1]) is less than 1 µM. In the assay on phospho-akt (Thr308), the inhibition at 1 µM was 25 to 75% and the inhibition at 10 µM was more than 75%.

Turning to `O=C(NCc1cccc(-c2c[nH]c3ncccc23)c1)c1cccn(Cc2ccc(Cl)c(Cl)c2)c1=O` [Cpd 324], the IC50 at phosphorylated PDK1 was less than 500 nM. Further, the EC50 in the assay on phospho-akt (Thr308) (setting [1]) and in the assay with phospho-akt (Thr308) (setting [2]) was more than 5 µM throughout.

On to `O=C(NCc1cccc(-c2cccc3[nH]ncc23)c1)c1cccn(Cc2ccc(F)c(F)c2)c1=O` [Cpd 329], for which the IC50 on dephosphorylated PDK1 fell in the range of 500 to 10000 nM. Further, the EC50 in the assay on phospho-akt (Thr308) (setting [1]) is more than 5 µM.

Take `O=C(NCc1cccc(-c2c[nH]c3ncc(Br)cc23)c1)c1cccn(Cc2ccc(F)c(F)c2)c1=O` [Cpd 330]: the IC50 at phosphorylated PDK1 is less than 500 nM. Also, the EC50 in the assay with phospho-akt (Thr308) (setting [1]) is 1 to 5 µM.

For the compound `O=C(NCc1cccc(-c2c[nH]c3ncc(-c4ccsc4)cc23)c1)c1cccn(Cc2ccc(F)c(F)c2)c1=O` [Cpd 331], on phosphorylated PDK1, the IC50 is less than 500 nM. Further, the EC50 with phospho-akt (Thr308) (setting [1]) is 1 to 5 µM.

For `O=C(NC(C(=O)O)c1ccc(-c2c[nH]c3ncccc23)s1)c1cccn(Cc2ccc(F)c(F)c2)c1=O` (centres unmarked) [Cpd 335], the IC50 on phosphorylated PDK1 lay in the range of 500 to 10000 nM. For the same compound, the EC50 in the assay with phospho-akt (Thr308) (setting [2]) was more than 5 µM.

What is called IC50 is the concentration that gives 50% inhibition. The term EC50 denotes the concentration that produces a half-maximal response. The term inhibition denotes the percentage by which the read-out fell short of the control.
